Source: PMC5039624 (Scientific Reports, 2016)
Bridge positions count the residues as written; N and C are the ends. Peptide text beside a SMILES is read from it.

Key:
Format in all cases: physicochemical
[1] = Liposome centrifugation assay, liposomes with POPG content reduced by 25%; conditions: 10 mM HEPES pH 7.4, 150 mM NaCl, 10 μM toxin, 1 h room temperature, 30 min at 100,000 g, supernatant by RP-HPLC
Procedure: (§1) To investigate whether the micelle-binding interface identified by NMR-CSM faithfully reports on the lipid-binding interface of the peptide we used a previously reported liposome centrifugation assay[30] to study the interaction between VSTx1 and phospholipids with different head groups. VSTx1 was incubated with liposomes of different composition, then the liposomes were pelleted using ultracentrifugation and the amount of unbound VSTx1 in the supernatant was determined using reverse-phase (RP) HPLC (Fig. 4a,b). Partition coefficients (Kp) for binding of VSTx1 to liposomes were calculated by fitting to the partition equilibrium equation (see Eqn (3) in Materials and Methods). […]
(§2) Large unilamellar vesicles (LUVs) were prepared by drying lipids (POPG and/or POPC, 25 mg/mL) under nitrogen gas, drying the lipid pellet under vacuum, and resuspending the lipids by vortexing for 1 h in an aqueous buffer containing 10 mM HEPES pH 7.4, and 150 mM NaCl. […] Aqueous solutions of the toxin (10 μM) were incubated with varying amounts of vesicles for 1 h at room temperature, then the vesicles were centrifuged for 30 min at 100,000 g before the toxin concentration in the aqueous phase was determined. Aqueous concentrations of VSTx1 were quantified by RP-HPLC using a monolithic C18 column (4.6 × 100 mm). […]

[2] = Liposome centrifugation assay, POPC liposomes; conditions: LUVs, 10 mM HEPES pH 7.4, 150 mM NaCl; 10 μM toxin, 1 h room temperature, 30 min at 100,000 g; supernatant by RP-HPLC; close to 0
Procedure: as §1, §2

[3] = Liposome centrifugation assay, POPG liposomes; conditions: LUVs extruded through 0.1 μm filters, 10 mM HEPES pH 7.4, 150 mM NaCl; 10 μM toxin, 1 h room temperature, 30 min at 100,000 g; unbound toxin in supernatant by RP-HPLC; fit to partition equilibrium equation
Procedure: To investigate whether the micelle-binding interface identified by NMR-CSM faithfully reports on the lipid-binding interface of the peptide we used a previously reported liposome centrifugation assay[30] to study the interaction between VSTx1 and phospholipids with different head groups. VSTx1 was incubated with liposomes of different composition, then the liposomes were pelleted using ultracentrifugation and the amount of unbound VSTx1 in the supernatant was determined using reverse-phase (RP) HPLC (Fig. 4a,b). Partition coefficients (Kp) for binding of VSTx1 to liposomes were calculated by fitting to the partition equilibrium equation (see Eqn (3) in Materials and Methods). The Kp for binding to 1-palmitoyl-2-oleoyl-sn-glycero-3-phosphoglycerol (POPG) liposomes was 2.4 × 10^5 while the Kp values for binding to POPC or 1-palmitoyl-2-oleoyl-sn-glycero-3-phosphoethanolamine (POPE) liposomes were close to 0 (both <10^2) (Fig. 4e).
Large unilamellar vesicles (LUVs) were prepared by drying lipids (POPG and/or POPC, 25 mg/mL) under nitrogen gas, drying the lipid pellet under vacuum, and resuspending the lipids by vortexing for 1 h in an aqueous buffer containing 10 mM HEPES pH 7.4, and 150 mM NaCl. Vesicles were extruded 20 times using 0.1 μm polycarbonate filters (Avanti Polar Lipids, Inc.). Aqueous solutions of the toxin (10 μM) were incubated with varying amounts of vesicles for 1 h at room temperature, then the vesicles were centrifuged for 30 min at 100,000 g before the toxin concentration in the aqueous phase was determined. Aqueous concentrations of VSTx1 were quantified by RP-HPLC using a monolithic C18 column (4.6 × 100 mm). The toxin was eluted with a linear gradient of 10–50% solvent B (0.046% TFA in acetonitrile) in solvent A (0.05% TFA in water) over 10 min at a flow rate of 3 ml/min. The partition coefficients (Kp) for the binding of VSTx1 to liposomes were calculated by fitting to the partition equilibrium equation: […]

[4] = Liposome centrifugation assay, POPE liposomes; conditions: 10 μM toxin, 1 h room temperature, 30 min at 100,000 g, supernatant by RP-HPLC, close to 0
Procedure: as §1, §2

Q: What does the source list for CSCC[C@@H]1NC(=O)[C@H](Cc2ccccc2)NC(=O)[C@H](CCCCN)NC(=O)CNC(=O)[C@@H](NC(=O)[C@H](CCC(=O)O)NC(=O)[C@@H](N)CO)CSSC[C@@H]2NC(=O)[C@@H]3CSSC[C@@H](C(=O)N[C@H](C(=O)N[C@@H](CC(C)C)C(=O)N[C@@H](C)C(=O)N[C@@H](CO)C(=O)N4CCC[C@H]4C(=O)N[C@@H](Cc4ccccc4)C(=O)O)C(C)C)NC(=O)[C@H](Cc4c[nH]c5ccccc45)NC(=O)[C@H](CCCCN)NC(=O)[C@H](Cc4c[nH]c5ccccc45)NC(=O)[C@H](CCCNC(=N)N)NC(=O)[C@H](CO)NC(=O)[C@H](CO)NC(=O)[C@H](CSSC[C@H](NC(=O)[C@H](CCCCN)NC(=O)[C@H](Cc4c[nH]c5ccccc45)NC1=O)C(=O)N[C@@H](CCCCN)C(=O)N[C@@H](CC(N)=O)C(=O)N[C@@H](CO)C(=O)N[C@@H](CC(N)=O)C(=O)N[C@@H](CC(=O)O)C(=O)N3)NC(=O)[C@H](C(C)C)NC(=O)[C@H](CC(C)C)NC(=O)[C@H](CC(=O)O)NC(=O)[C@H](CCCCN)NC2=O [VSTx1] (H-SECGKFMWKCKNSNDCCKDLVCSSRWKWCVLASPF-OH; disulfide 3-17, 10-22, 16-29)?
A: Partition coefficient (Kp), POPG content of liposomes reduced by 25% [1]: 0.18 × 10^5; Partition coefficient (Kp) for binding to POPC liposomes [2]: < 10^2; Partition coefficient (Kp) for binding to POPG liposomes [3]: 2.4 × 10^5; Partition coefficient (Kp) for binding to POPE liposomes [4]: < 10^2
